From ChEMBL document CHEMBL1137160, “Structure-activity relationships of methylene or terminal side chain modified retinoids on the differentiation and cell death signaling in NB4 promyelocytic leukemia cells” (2004)

Experiments:
[1] = system: NB-4; assay: Ability to induce maturation and cell death of NB4 cells labelled with V-FITC on day 6; type: functional, Homo sapiens; design: concentration or dose not given beside the values
[2] = system: NB-4; assay: Evaluated for mean value of the fluorescence intensity of CD11c-PE expressing NB4 cells at day 6; type: functional, Homo sapiens
[3] = system: NB-4; assay: Evaluated for mean value of the fluorescence intensity of CD11c-PE expressing NB4 cells at day 3; type: functional, Homo sapiens
[4] = system: NB-4; assay: Ability to induce maturation and cell death of NB4 cells labelled with V-FITC on day 3; type: functional, Homo sapiens; design: concentration or dose not given beside the values
[5] = target: T1, Retinoic acid receptor RXR-beta (Homo sapiens) (UniProt P28702); assay: Agonist activity for Retinoid X receptor beta as photons in presence and absence of ligand; type: functional; design: unit not given here
T1 sequence (whole entry): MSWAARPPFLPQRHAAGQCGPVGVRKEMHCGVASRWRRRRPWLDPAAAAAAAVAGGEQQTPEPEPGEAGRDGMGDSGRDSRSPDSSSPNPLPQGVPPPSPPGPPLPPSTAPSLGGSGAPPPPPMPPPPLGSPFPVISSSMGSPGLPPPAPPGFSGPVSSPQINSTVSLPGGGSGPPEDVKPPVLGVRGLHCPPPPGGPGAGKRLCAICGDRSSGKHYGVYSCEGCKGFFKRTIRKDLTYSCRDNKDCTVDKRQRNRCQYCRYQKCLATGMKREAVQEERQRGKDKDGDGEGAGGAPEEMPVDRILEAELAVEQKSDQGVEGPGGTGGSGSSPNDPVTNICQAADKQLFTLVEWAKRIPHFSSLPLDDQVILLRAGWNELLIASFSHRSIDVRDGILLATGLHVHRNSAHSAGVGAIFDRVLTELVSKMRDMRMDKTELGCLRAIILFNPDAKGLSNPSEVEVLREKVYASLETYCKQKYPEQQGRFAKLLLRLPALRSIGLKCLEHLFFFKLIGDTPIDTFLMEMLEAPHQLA

[6] = target: T2, Retinoic acid receptor beta (Homo sapiens) (UniProt P10826); assay: Agonist activity for Retinoic acid receptor beta as photons in presence and absence of ligand; type: functional; design: unit not given here
T2 sequence (whole entry): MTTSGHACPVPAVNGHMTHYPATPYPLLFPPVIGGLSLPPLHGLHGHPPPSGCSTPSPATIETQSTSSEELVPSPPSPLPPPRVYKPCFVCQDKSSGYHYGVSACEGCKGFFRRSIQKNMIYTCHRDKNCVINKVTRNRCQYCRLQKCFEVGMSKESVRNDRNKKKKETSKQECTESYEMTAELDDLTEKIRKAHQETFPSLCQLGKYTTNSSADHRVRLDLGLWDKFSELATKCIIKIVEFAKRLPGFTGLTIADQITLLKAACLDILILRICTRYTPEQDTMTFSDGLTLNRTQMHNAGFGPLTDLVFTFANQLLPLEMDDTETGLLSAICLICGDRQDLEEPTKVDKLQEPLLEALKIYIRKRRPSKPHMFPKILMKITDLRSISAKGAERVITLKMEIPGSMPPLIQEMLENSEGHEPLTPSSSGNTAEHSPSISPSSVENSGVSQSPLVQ

[7] = target: T3, Retinoic acid receptor alpha (Homo sapiens) (UniProt P10276); assay: Agonist activity for Retinoic acid receptor alpha as photons in presence and absence of ligand; type: functional; design: unit not given here
T3 sequence (whole entry): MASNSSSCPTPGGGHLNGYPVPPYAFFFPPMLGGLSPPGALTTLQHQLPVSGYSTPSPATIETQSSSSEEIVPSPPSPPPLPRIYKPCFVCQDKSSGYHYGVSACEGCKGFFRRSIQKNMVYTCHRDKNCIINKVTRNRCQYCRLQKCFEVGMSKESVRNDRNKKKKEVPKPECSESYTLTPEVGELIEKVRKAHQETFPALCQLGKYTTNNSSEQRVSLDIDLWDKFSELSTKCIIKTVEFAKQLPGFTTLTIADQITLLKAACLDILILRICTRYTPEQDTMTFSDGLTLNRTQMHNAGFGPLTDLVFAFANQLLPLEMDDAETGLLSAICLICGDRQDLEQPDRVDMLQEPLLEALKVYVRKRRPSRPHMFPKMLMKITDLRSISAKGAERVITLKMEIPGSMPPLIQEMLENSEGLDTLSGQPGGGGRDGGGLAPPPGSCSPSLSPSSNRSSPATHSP

[8] = target: T4, Retinoic acid receptor gamma (Homo sapiens) (UniProt P13631); assay: Agonist activity for Retinoic acid receptor gamma as photons in presence and absence of ligand; type: functional; design: concentration or dose not given beside the values
T4 sequence (whole entry): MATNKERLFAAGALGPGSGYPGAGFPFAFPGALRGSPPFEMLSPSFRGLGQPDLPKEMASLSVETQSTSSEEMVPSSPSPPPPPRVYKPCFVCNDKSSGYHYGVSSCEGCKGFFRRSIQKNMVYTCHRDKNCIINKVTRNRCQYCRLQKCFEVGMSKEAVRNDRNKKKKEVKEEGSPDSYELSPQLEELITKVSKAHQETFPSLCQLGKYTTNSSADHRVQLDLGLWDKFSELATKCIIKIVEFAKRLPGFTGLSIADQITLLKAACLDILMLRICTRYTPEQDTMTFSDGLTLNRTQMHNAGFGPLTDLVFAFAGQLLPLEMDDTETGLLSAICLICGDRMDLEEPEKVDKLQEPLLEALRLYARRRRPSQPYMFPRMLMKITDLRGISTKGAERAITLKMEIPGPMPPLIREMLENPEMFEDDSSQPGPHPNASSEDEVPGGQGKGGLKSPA

Row | SMILES | Activity [1] [%] | Activity [2] | Activity [3] | Activity [4] [%] | Activity [5] | Activity [6] | Activity [7] | Activity [8]
1 | C/C(=C\c1ccc(C(=O)O)cc1)c1ccc2c(c1)C(C)(C)CCC2(C)C | 35 | 170 | 106 | 14 | – | – | – | –
2 | CC1=C(/C=C/C(C)=C\C=C\C(C)=C\C(=O)O)C(C)(C)CCC1 | – | – | – | – | 14.5 | – | – | –
3 | CC1=C(/C=C/C(C)=C/C=C(\C#N)C(C)=C(C(=O)O)C(=O)O)C(C)(C)CCC1 | 12 | 64 | 77 | 11 | 3 | 17.9 | 22.2 | 11.7
4 | C=C(/C=C/C1=C(C)CCCC1(C)C)C/C=C/C(C)=C/C(=O)O | 56 | 163 | 117 | 18 | 5.8 | 7.2 | 7 | 3.3
5 | CC1(C)CCC(C)(C)c2cc(C3(c4ccc(C(=O)O)cc4)OCCO3)ccc21 | 11 | 23 | 22 | 11 | – | – | – | –
6 | C=C(/C=C/C1=C(C)CCCC1(C)C)C/C=C/C=C\C(=O)O | 12 | 35 | 33 | 10 | 2 | 13.1 | 7.1 | 7.9
7 | C=C(/C=C/C1=C(C)CCCC1(C)C)C/C=C/C(C)=C\C(=O)O | 14 | 43 | 38 | 11 | 2.1 | 14.5 | 11.8 | 10.9
8 | CC1=C(/C=C/C(C)=C/C=C/C(C)=C/C(=O)O)C(C)(C)CCC1 [TRETINOIN] | 50 | 197 | 110 | 14 | – | – | – | –
9 | C=C(/C=C/c1ccccc1)C/C=C/C(C)=C\C(=O)O | 8 | 12 | 15 | 9 | 13.5 | 4 | 4.9 | 4.6
10 | COC(=O)\C=C(C)/C(C#N)=C/C=C(C)/C=C/C1=C(C)CCCC1(C)C | 8 | 10 | 10 | 13 | 1.6 | 6.7 | 1.3 | 3
11 | CC1=C(/C=C/C(C)=C/C=C(C#N)/C(C)=C\C(=O)O)C(C)(C)CCC1 | 20 | 126 | 88 | 9 | 2.1 | 14.6 | 23.5 | 8.9
